Test results from publication PMC10414583, “Structures of SARS-CoV-2 N7-methyltransferase with DOT1L and PRMT7 inhibitors provide a platform for new antivirals” (PLOS Pathogens, 2023).

The compounds below were run against T1, SARS-CoV-2 nsp14/nsp10 complex (Severe acute respiratory syndrome coronavirus 2, UniProt P0DTD1) (assay: biochemical).
T1 construct: gene rep; full-length mature nsp14 and nsp10 cut from replicase polyprotein 1ab; co-expressed from one pRSF-Duet-1 plasmid in E. coli BL21Gold (DE3), C-terminal 6xHis; with Non-structural protein 10
Format: binding

Compound	Kd
Nc1ncnc2c1ncn2[C@@H]1O[C@H](CSCCCCNCc2cccc(-c3ccc(Cl)cc3)c2)[C@@H](O)[C@H]1O [SGC8158]	~6 µM
C[S+](CC[C@H](N)C(=O)O)C[C@H]1O[C@@H](n2cnc3c(N)ncnc32)[C@H](O)[C@@H]1O (stereo partly shown) [SAM]	~6 µM
Nc1nc2c(ncn2[C@@H]2O[C@H](COP(=O)(O)OP(=O)(O)OP(=O)(O)OC[C@H]3O[C@@H](n4cnc5c(N)ncnc54)[C@H](O)[C@@H]3O)[C@@H](O)[C@H]2O)c(=O)[nH]1 [GpppA RNA cap analog]	20 µM
CC(C)N(CCCNC(=O)Nc1ccc(C(C)(C)C)cc1)C[C@H]1O[C@@H](n2cc(Br)c3c(N)ncnc32)[C@H](O)[C@@H]1O [SGC0946]	~8 µM
